Structures can show the parent of a compound that is named as a salt. Where two headings read alike, the source gives them in different places.
What was measured:
[1] = tested on: HEK293 ATCC CRL-1573 human embryonic kidney cells; assay: CO-ADD cytotoxicity assay (resazurin); type: cell-based; settings: at the maximum concentration tested
Method: The compounds were used as received by the CO-ADD. For the screenings, most compounds were dissolved to a stock concentration of 10 mg/mL in DMSO. K2[Ti(Citrate)3], Na3Citrate, and K2[TiO(Oxalate)2] were dissolved in warm water. [Cu(Deferasirox)(H2O)]2 was dissolved in pyridine after its solubility was determined to be excellent in pyridine due to coordination of the solvent to the metal producing [Cu(Deferasirox)(pyridine)]2 in situ. […] Each sample concentration was prepared in 384-well plates, non-binding surface plate (NBS; Corning 3640) for each bacterial/fungal strain, tissue-culture treated (TC-treated; Corning 3712/3764), black for mammalian cell types and polypropylene 384-well (PP; […] All sample preparation was conducted using liquid handling robots. HEK293 ATCC CRL-1573 human embryonic kidney cells were counted manually in a Neubauer hemocytometer and added to compound-containing plates (384-well plates, tissue culture-treated (TC); […] Life Technologies 11995-073) with 10% FBS (GE SH30084.03).

E. coli (ATCC 25922) = assay: CO-ADD antibacterial assay, growth inhibition (OD600); type: cell-based, Escherichia coli; settings: up to 32 μg/mL
Method: (§1) Dry compounds ranging from 1–2 mg were weighed into properly labeled Eppendorf tubes and sealed with parafilm. The compounds were used as received by the CO-ADD. For the screenings, most compounds were dissolved to a stock concentration of 10 mg/mL in DMSO. K2[Ti(Citrate)3], Na3Citrate, and K2[TiO(Oxalate)2] were dissolved in warm water. […] Samples were diluted in water to a final testing concentration of 32 µg/mL while keeping the final co-solvent concentration to a maximum of 0.5%. Where applicable, compounds were serially diluted 1:2 fold eight times. Each sample concentration was prepared in 384-well plates, non-binding surface plate (NBS; Corning 3640) for each bacterial/fungal strain, tissue-culture treated (TC-treated; Corning 3712/3764), black for mammalian cell types and polypropylene 384-well (PP; Corning 3657) for hemolysis assays, all in duplicate (n = 2), and keeping the final DMSO concentration to a maximum of 0.5%. All sample preparation was conducted using liquid handling robots.
(§2) For the bacterial assays, four Gram-negative bacteria (E. coli (ATCC 25922, Manassas, VA, USA); K. pneumoniae (ATCC 700603), A. baumannii; (ATCC 19606), and P. aeruginosa (ATCC 27853) and the Gram-positive bacteria (S. aureus MRSA (ATCC 43300) were used. Each strain was cultured in cation-adjusted Mueller Hinton broth (CAMHB; Bacto Laboratories 212322, Mount Pritchard, Australia) at 37 °C overnight. A sample of each culture was then diluted 40-fold in fresh CAMHB and incubated at 37 °C for 1.5–3 h. The resultant mid-log phase cultures were diluted with CAMHB (CFU/mL measured by OD600), then added to each well of the compound-containing plates (384-well non-binding surface (NBS) plates; Corning CLS3640, Millipore Sigma, Burlington, MA, USA), giving a cell density of 5 × 10^5 CFU/mL and a total volume of 50 µL. Plates were covered and incubated at 37 °C for 18 h without shaking. Inhibition of bacterial growth was determined by measuring absorbance at 600 nm (OD600) with a Tecan M1000 Pro monochromator plate reader, using media-only as negative control and bacteria without inhibitors as a positive control. […] Colistin sulfate (Sigma C4461) and vancomycin HCl (Sigma 861987) were used as internal controls on each plate for Gram-negative and Gram-positive bacteria, respectively.

[2] = tested on: C. neoformans (ATCC 208821); assay: CO-ADD antifungal assay, growth inhibition (resazurin, OD600-570); type: cell-based, Cryptococcus neoformans; settings: up to 32 μg/mL
Method: (§3) The compounds were used as received by the CO-ADD. For the screenings, most compounds were dissolved to a stock concentration of 10 mg/mL in DMSO. K2[Ti(Citrate)3], Na3Citrate, and K2[TiO(Oxalate)2] were dissolved in warm water. [Cu(Deferasirox)(H2O)]2 was dissolved in pyridine after its solubility was determined to be excellent in pyridine due to coordination of the solvent to the metal producing [Cu(Deferasirox)(pyridine)]2 in situ. […] Each sample concentration was prepared in 384-well plates, non-binding surface plate (NBS; Corning 3640) for each bacterial/fungal strain, tissue-culture treated (TC-treated; Corning 3712/3764), black for mammalian cell types and polypropylene 384-well (PP; […] All sample preparation was conducted using liquid handling robots. For the fungal assays, the fungi (C. albicans (ATCC 90028) and C. neoformans) (ATCC 208821) were used. Both fungi (yeast) strains were cultured for 3 days on Yeast Extract-Peptone Dextrose (YPD; Becton Dickinson 242720, Thermo Fisher Scientific, Waltham, MA, USA) agar at 30 °C. A yeast suspension of 1 × 10^6 to 5 × 10^6 CFU/mL (as determined by OD530) was prepared from five colonies from the agar plates, subsequently diluted with Yeast Nitrogen Base media (YNB; Becton Dickinson 233520, Thermo Fisher Scientific, Waltham, MA, USA), and added to each well of the compound-containing plates (384-well plates, NBS; Corning CLS3640) giving a final cell density of 2.5 × 10^3 CFU/mL and a total volume of 50 μL. Plates were covered and incubated at 35 °C for 36 h without shaking. […] Sigma R7017) and incubation at 35 °C for 2 h, using media-only as a negative control and fungi without inhibitors as a positive control. […] Fluconazole (Sigma F8929) was used as an internal control on each plate for both strains.

[3] = tested on: A. baumannii (ATCC 19606); assay: CO-ADD antibacterial assay, growth inhibition (OD600); type: cell-based, Acinetobacter baumannii; settings: up to 32 μg/mL
Method: as §1, §2

[4] = tested on: K. pneumoniae (ATCC 700603); assay: as above; type: cell-based, Klebsiella pneumoniae; settings: up to 32 μg/mL
Method: as §1, §2

C. albicans (ATCC 90028) = assay: CO-ADD antifungal assay, growth inhibition (OD630); type: cell-based, Candida albicans; settings: up to 32 μg/mL
Method: as §3

MRC-5 cells [5] = settings: cited from earlier work
[6] = tested on: S. aureus MRSA (ATCC 43300); assay: CO-ADD antibacterial assay, growth inhibition (OD600); type: cell-based, Staphylococcus aureus
Method: as §1, §2

[7] = tested on: P. aeruginosa (ATCC 27853); assay: as above; type: cell-based, Pseudomonas aeruginosa; settings: up to 32 μg/mL
Method: as §1, §2

MRC-5 cells [8] = assay: MRC-5 cell viability, dose-response treatment, MTT assay; type: cell-based, human; settings: MRC-5 cells, MTT, 72 h, pH 7.4, n = 6, this work
Method: A thawed stock of MRC-5 cells was washed with 1X PBS and resuspended in phenol red DMEM media (supplemented with 10% FBS and 1% of penicillin-streptomycin) and then seeded in a 100 mm × 20 mm (complete, O.D. x H) petri dish and grown in a 5% (v/v) CO2 humidified atmosphere at 37 °C. At least three passages were performed to ensure the integrity of the cells. After this point, cells were collected, thoroughly washed with 1X PBS, and then resuspended in phenol red-free DMEM (supplemented with 10% FBS, 1% Streptomycin/Penicillin, and 2.4 mM L-glutamine) at a 2.0 × 10^5 cells/mL concentration. Approximately 100 µL of the cell solution was seeded into wells of several 96-well plates to begin the MTT assay, which was performed in the 5% (v/v) CO2 humidified atmosphere at 37 °C. At least one lane of wells in each plate was supplied media without cells as a control. […] Most of the compounds were dissolved in 1X PBS buffer at pH 7.4. […] Titanocene dichloride was prepared as a fresh stock solution in DMSO and then diluted in 0.1 M NaCl (aq) instead of 1X PBS (to minimize hydrolysis induced precipitation) to the desired concentration while maintaining a constant 1% (v/v) DMSO background (0.5% DMSO after mixing with the well media). A control of cells treated with media containing 1% (v/v) DMSO was included in the study. The titanocene solutions were used within an hour of preparation in the final cell solution. […] At 3 h before a total of 72 h of incubation with the compounds, the cells were treated with 25 µL of 9 mg/mL MTT prepared in 1X PBS and sterile-filtered. Upon completion of the three hours, 50 µL of 10% (w/v) SDS (prepared in 0.1 M Tris buffer at pH 11) was added to solubilize the purple formazan product crystals and left overnight in the incubator. Control wells in the plates consisted of: (1) Untreated cells + MTT as the measure of 100% viable cell growth in the media and (2) Media with no cells + MTT as the measure of zero cells in the media. Two sets of compounds could be tested per plate. The plates were read at the wavelength of 570 nm (absorbance of the formazan product at pH 10.0) and 800 nm (background control) using a Tecan plate reader. The absorbance of all wells was compared to the absorbance of the untreated cells with the MTT set as the 100% viable cell standard and the absorbance of the zero cell control set as the 0% viable cell standard. […] Nonlinear regression in Origin 8.5 was utilized to fit the growth curves using the pharmacology dose–response equation to determine the half-maximal inhibitory concentration (IC50) and the corresponding standard deviation. All samples were tested six times.

[9] = cited from earlier work
[10] = predicted or measured MIC, ≥75% growth inhibition
[11] = predicted or measured MIC, ≥75% growth inhibition, 36 h
[12] = predicted or measured MIC, lowest concentration with ≥75% growth inhibition, 0.25-32 μg/mL, 18 h

Molecule	MIC E. coli (E. coli (ATCC 25922); [10])	Dmax E. coli, maximum % inhibition (E. coli (ATCC 25922))	MIC C. neoformans [2, 11]	Dmax C. neoformans, maximum % inhibition [2]	MIC A. baumannii [3, 10]	Dmax A. baumannii, maximum % inhibition [3]	MIC K. pneumoniae [4, 10]	Dmax K. pneumoniae, maximum % inhibition [4]	MIC C. albicans (C. albicans (ATCC 90028); [11])	Dmax C. albicans, maximum % inhibition (C. albicans (ATCC 90028))	MIC S. aureus (MRSA) [6, 12]	Dmax S. aureus (MRSA), maximum % inhibition ([6]; up to 32 μg/mL)	MIC P. aeruginosa [7, 10]	Dmax P. aeruginosa, maximum % inhibition [7]	also measured
O=C(O)CN(CCN(CC(=O)O)Cc1ccccc1O)Cc1ccccc1O [Compound 5, N,N′-di(o-hydroxybenzyl)ethylenediamine-N,N′-diacetic acid monohydrochloride hydrate, reference compound]	–	–	–	–	–	–	–	–	–	–	–	–	–	–	inhibition of HEK293 cell proliferation [1]: ~50%; MIC (E. coli (ATCC 25922); Escherichia coli, ATCC25922, predicted or measured MIC, ≥75% growth inhibition): > 32 µg/mL; Dmax (E. coli (ATCC 25922); Escherichia coli, ATCC25922, read-out: Dmax E. coli, maximum % inhibition): 51.6%; MIC ([2]; Cryptococcus neoformans, ATCC208821, predicted or measured MIC, ≥75% growth inhibition, 36 h): > 32 µg/mL; Dmax ([2]; Cryptococcus neoformans, ATCC208821, read-out: Dmax C. neoformans, maximum % inhibition): -17.5%; MIC ([3]; Acinetobacter baumannii, ATCC19606, predicted or measured MIC, ≥75% growth inhibition): > 32 µg/mL; Dmax ([3]; Acinetobacter baumannii, ATCC19606, read-out: Dmax A. baumannii, maximum % inhibition): 68.3%; MIC ([4]; Klebsiella pneumoniae, ATCC700603, predicted or measured MIC, ≥75% growth inhibition): > 32 µg/mL; Dmax ([4]; Klebsiella pneumoniae, ATCC700603, read-out: Dmax K. pneumoniae, maximum % inhibition): 52.9%; MIC (C. albicans (ATCC 90028); Candida albicans, ATCC90028, predicted or measured MIC, ≥75% growth inhibition, 36 h): > 32 µg/mL; Dmax (C. albicans (ATCC 90028); Candida albicans, ATCC90028, read-out: Dmax C. albicans, maximum % inhibition): 3.5%; IC50 ± SD (µg/mL) (MRC-5 cells [5]): >>44.3 µg/mL; IC50 (MRC-5 cells [5]; read-out: IC50 ± SD): > 100 µM; MIC ([6]; Staphylococcus aureus, predicted or measured MIC, lowest concentration with ≥75% growth inhibition, 0.25-32 μg/mL, 18 h): > 32 µg/mL; Dmax ([6]; Staphylococcus aureus, up to 32 μg/mL, read-out: Dmax S. aureus (MRSA), maximum % inhibition): 24.3%; MIC ([7]; Pseudomonas aeruginosa, ATCC27853, predicted or measured MIC, ≥75% growth inhibition): > 32 µg/mL; Dmax ([7]; Pseudomonas aeruginosa, ATCC27853, read-out: Dmax P. aeruginosa, maximum % inhibition): 69%
[Cl-].[Cl-].[Ti+4].c1cc[cH-]c1.c1cc[cH-]c1 [Compound 13, Bis(cyclopentadienyl)titanium(IV) dichloride, reference compound]	>32 µg/mL	23.76%	>32 µg/mL	6.5%	>32 µg/mL	15.78%	>32 µg/mL	16.65%	>32 µg/mL	16.15%	>32 µg/mL	51.55%	>32 µg/mL	16.01%	IC50 ± SD (µg/mL) (MRC-5 cells [8]): >>24.9 µg/mL; IC50 (MRC-5 cells [8]; read-out: IC50 ± SD): > 100 µM; solution stability (in words) ([9]; pH 7.4): extremely hydrolysis prone
Ti(BHPT)2 [Compound 9]	>32 µg/mL	−0.56%	>32 µg/mL	−1.7%	>32 µg/mL	1.55%	>32 µg/mL	6.35%	>32 µg/mL	4.27%	>32 µg/mL	7.82%	>32 µg/mL	10.27%	solution stability (in words) ([9]; pH 4): highly stable in solution; IC50 (MRC-5 cells [5]; approximated relative IC50, compound inhibits proliferation at a maximum of 25%, read-out: IC50 (µM), approximated relative IC50): ~2.4 µM; IC50 (µg/mL), approximated relative IC50 (MRC-5 cells [5]; approximated relative IC50, compound inhibits proliferation at a maximum of 25%): ~1.5 µg/mL; activity against MRSA (in words) ([6]; CO-ADD screen, 32 μg/mL): inactive

Reference: paper PMC8868518, “Exploring Titanium(IV) Complexes as Potential Antimicrobial Compounds” (Antibiotics, 2022)
